Source: patent US6673354B2, “Compositions and methods for treating papillomavirus-infected cells” (priority 1998, dated 2004)
Where no end group is shown, it is not given here.

Columns and labels:
[1] = biological target: T1, interaction between HPV16 E1 and E2 (Human papillomavirus type 16, UniProt P03114); test: In vitro HPV E1-E2 binding assay (co-immunoprecipitation / Western blot), HPV16 E1 and HPV16 E2; conditions: increasing peptide concentrations, FIG. 6A
T1 construct: made in house; host or cells: Hi-Five insect cells infected with recombinant baculovirus (pVL1392); nuclear extracts
T1 sequence (P03114 whole entry, looked up): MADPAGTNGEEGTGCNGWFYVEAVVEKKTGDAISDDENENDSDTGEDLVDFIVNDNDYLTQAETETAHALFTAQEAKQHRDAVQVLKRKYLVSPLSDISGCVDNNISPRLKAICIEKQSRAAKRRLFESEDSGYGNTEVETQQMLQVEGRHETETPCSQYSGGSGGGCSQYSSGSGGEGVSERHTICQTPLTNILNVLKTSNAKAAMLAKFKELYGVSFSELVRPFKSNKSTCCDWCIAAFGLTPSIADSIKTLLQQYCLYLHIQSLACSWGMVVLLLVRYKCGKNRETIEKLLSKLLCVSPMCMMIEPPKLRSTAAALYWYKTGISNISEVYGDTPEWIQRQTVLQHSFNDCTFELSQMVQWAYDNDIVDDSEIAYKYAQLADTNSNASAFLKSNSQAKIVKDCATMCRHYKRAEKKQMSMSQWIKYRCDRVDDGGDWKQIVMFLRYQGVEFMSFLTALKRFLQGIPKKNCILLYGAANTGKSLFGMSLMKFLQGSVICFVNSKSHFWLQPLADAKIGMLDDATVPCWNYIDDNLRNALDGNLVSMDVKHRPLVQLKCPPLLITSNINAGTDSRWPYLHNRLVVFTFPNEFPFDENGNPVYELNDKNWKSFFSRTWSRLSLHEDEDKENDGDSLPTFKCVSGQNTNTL
Procedure: (§1) In vitro HPV E1-E2 binding assay. 300-500 ng protein from HPV16 or HPV11 EE-E1 expressing recombinant baculovirus infected cell nuclear extracts and 80-120 ng from HPV E2 baculovirus infected cell nuclear extracts were incubated in 500 μl NET-gel buffer (50 mM Tris-HCl pH7.5, 150 mM NaCl, 0.1% NP-40, 1 mM EDTA, 0.25% gelatin) at 4° C. for one hour. 1-2 μg anti-EE monoclonal antibody was added and incubated with shaking at 4° C. for one hour. Immune complexes were precipitated with protein-G agarose beads and washed twice for 30 minutes with ice cold NET-gel buffer. Precipitated proteins were detected by Western blot using appropriate primary antibodies and anti-rabbit IgG HRP or anti-mouse IgG HRP (Amersham). Membranes were blocked for one hour in TNET (10 mM Tris 7.5, 2.5 mM EDTA, 50 mM NaCl, 0.1% Tween-20) containing 4% (w/v) dry milk. Washes and antibody reactions were carried out in TNET, and proteins were visualized by chemiluminescence (Reneaissance ECL, NEN) and autoradiography. Bands were quantitated using the NIH image program.
(§2) Therefore, we reasoned that a peptide encompassing this domain of HPV16 E2 might inhibit interaction between HPV16 E1 and E2, thereby inhibiting HPV16 DNA replication (FIG. 5). In order to test this possibility, HPV16 E2 and epitope tagged full length HPV16 E1 (EE16-E1) proteins were expressed separately using baculovirus vectors. EE-E1 and associated E2 proteins were immunoprecipitated using an anti-EE epitope monoclonal antibody. Precipitated E2 was detected by Western blot using polyclonal antiserum raised to the DNA binding domain of HPV16 E2 (35). As shown in lane 2 of FIG. 6A, E2 co-immunoprecipitated with EE16-E1, but was not precipitated by the EE epitope antibody in the absence of EE16-E1 (lane 1). Peptides encompassing HPV16 E2 amino acids 29-51 (E2N-WP23) or residues 33-47 (E2N-WP15) of HPV16 E2 were then tested for inhibition of E1-E2 interaction. These peptide sequences were derived from the sequence of HPV16 E2, and were based on an alignment of amino terminal residues that are conserved among the papillomavirus E2 proteins (FIG. 5). […] Both the HPV16 E2 protein itself and the E2 derived peptides act specifically in these assays, since the E39A replication defective HPV16 E2 mutant bound only slightly to EE16-E1 (lanes 14). […] These peptides are named E2N-MP23 and E2N-MP15, respectively (see FIG. 5). […] We have previously shown that a domain spanning amino acids 421-647 of the HPV16 E1 carboxy terminus is necessary and sufficient for E2 interaction (45).

[2] = tested on: in vitro HPV16 DNA replication; test: In vitro replication of HPV16 DNA (293 cell extract, EE-E1, HPV16 E2); assay type: biochemical; conditions: 40 ng EE-E1 and 6 ng HPV16 E2, FIG. 7
Procedure: In vitro replication reactions. In vitro replication reactions were essentially as described by Kuo et al. (18) in 25 μl reactions at 37° C. for indicated times. Standard reactions were for 2 hours, and were terminated by addition of 200 μl stop solution (20 mM Tris-HCl pH 7.5, 10 mM EDTA, 0.1% SDS, and 20 μg/ml RNase A). After incubation at 37° C. for 15 minutes, proteinase K was added (200 μg/ml) and incubation was continued 30 minutes. Samples were extracted with 250 μl phenol/chloroform/isoamyl alcohol (25:24:1), ethanol precipitated, washed with 70% ethanol, dried, resuspended in 20-30μl TE, and analyzed on a 0.8% agarose gel (TAE). The agarose gel was dried onto Hybond N+ membrane (Amersham), and replicated DNA was visualized by autoradiography. Bands were quantitated by Phosphorimager analysis. Replication templates were pKS7838-7905 (nt7838-7905/1-130) containing the HPV16 replication origin, and pUC7874-99 containing the HPV11 origin of replication (nt7874-7933/1-99). pUC7874-99 was a generously provided by Dr. Louise Chow.
We sought to establish a system for the study of HPV16 DNA replication in vitro, and to determine whether specific interaction between HPV16 E1 and E2 was required for HPV16 DNA replication in this system. […] As has been documented for other papillomavirus E1 proteins, some replication was observed using relatively large amounts of E1 in the absence of E2 (lanes 2 through 7) (6, 16, 22, 33, 40, 48). […] Replication in this assay is ori-dependent, since the small amount of replication of the pKS plasmid lacking the HPV16 origin detected at high concentrations of EE-E1 (FIG. 3B, lanes 1-6) was not stimulated by E2 (FIG. 1B, lanes 7-12).
Since the E2N-WP23 and E2N-WP 15 peptides could inhibit interaction between […] E1 and E2, their ability to inhibit in vitro HPV16 DNA replication was also tested (FIGS. 7A and 7B).

[3] = biological target: T2, HPV-16 E1-E2 interaction (Human papillomavirus type 16, UniProt P03114); test: In vitro HPV E1-E2 competition binding assay (HPV-16 EE-E1C and HPV-16 E2); conditions: 10 μM, 20 μM, and 40 μM peptide, FIG. 14
T2 construct: The carboxy terminus of HPV16-E1, from amino acid 424 to 649, is the minimal domain; made in house; host or cells: E2: nuclear extract of baculovirus-infected Hi-Five cells
T2 sequence (P03114 whole entry, looked up): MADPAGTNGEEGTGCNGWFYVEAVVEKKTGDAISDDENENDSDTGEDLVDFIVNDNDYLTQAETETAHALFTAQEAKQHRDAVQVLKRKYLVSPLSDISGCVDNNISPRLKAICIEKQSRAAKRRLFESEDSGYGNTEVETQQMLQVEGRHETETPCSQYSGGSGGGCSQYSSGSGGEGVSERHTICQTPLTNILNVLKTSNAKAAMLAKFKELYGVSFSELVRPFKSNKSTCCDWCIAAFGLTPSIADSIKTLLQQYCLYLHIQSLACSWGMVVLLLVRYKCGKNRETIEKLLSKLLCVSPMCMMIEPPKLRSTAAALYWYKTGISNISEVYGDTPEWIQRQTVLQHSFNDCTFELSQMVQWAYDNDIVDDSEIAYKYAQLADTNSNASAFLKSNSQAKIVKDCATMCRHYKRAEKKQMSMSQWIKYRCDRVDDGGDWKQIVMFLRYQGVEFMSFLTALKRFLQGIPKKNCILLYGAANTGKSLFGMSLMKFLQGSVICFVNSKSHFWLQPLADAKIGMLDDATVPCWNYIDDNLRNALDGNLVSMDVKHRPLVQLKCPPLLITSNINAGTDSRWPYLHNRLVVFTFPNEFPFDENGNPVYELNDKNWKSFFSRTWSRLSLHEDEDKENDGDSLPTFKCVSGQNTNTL
Procedure: Use of EE-EIC. The carboxy terminus of HPV16-E1, from amino acid 424 to 649, is the minimal domain necessary for interaction with E2 (Yasugi et al. 1997). An epitope tagged form of this domain (EE-EIC) was used in the E1-E2 interaction assays presented here.
In vitro HPV EI-E2 competition binding assay. HPV-16 EE-EIC (240 ng) in 500 1 NET gel buffer (50 mM Tris-HCI [pH 7.5 ], 150 mM NaCl, 0.1% NP-40, 1 mM EDTA, 0.25% gelatin) were pre-incubated with 0 μM, 10 μM, 20 μM, or 40 μM peptide for 10 minutes on ice. The final concentration of DMSO, the peptide solvent, was kept constant in all samples. Nuclear extract containing HPV-16 E2 was then added, and the mixture was incubated with shaking at 4° C. for 1 hour. Anti-EE monoclonal antibody (1 mg/ml) (BAbCo) was added, and the mixture was incubated with shaking for 30 minutes. Immune complexes were precipitated with protein G-agarose beads for an additional 30 minutes at 4° C. The beads were washed with 500 l ice-cold NET-gel buffer three times.

[4] = biological target: T3, interaction between HPV16 E1 and E2 (Human papillomavirus type 16, UniProt P03114); test: In vitro HPV E1-E2 binding assay (co-immunoprecipitation / Western blot), HPV16 E1 and HPV16 E2
T3 construct: made in house; host or cells: Hi-Five insect cells infected with recombinant baculovirus (pVL1392); nuclear extracts
Procedure: as §1, §2

With “E2N-MP23: 23-mer peptide of HPV16 E2 aa 29-51 containing alanine at the position analogous to E39 (HIDYWKHMRLACAIYYKAREMGF; UniProt P03120 29-51, looked up, variant E39A)” as the substance, how does the “inhibition of HPV16 E1-E2 interaction” value [1] read?
The value was “did not inhibit E1-E2 interaction at concentrations at which the wild type peptide could do so”.

And the “inhibition of in vitro HPV16 DNA replication” value [2]?
The value was “wild type peptides inhibited replication much more effectively than the respective E39A substituted analog”.

With “ERQIKIWFQNRRMKWKKGGWKHMRLECAIYYKAR [Ant-WP]” as the substance, how does the “inhibition of HPV-16 E1-E2 interaction (E1-E2 complex formation)” value [3] read?
Its value is “comparable to that of wild-type peptide”.

“GRKKRRQRRRPPQCGGWKHMRLECAIYYKAR (cysteine pairing not given here) [Tat-WP]” was tested. Which “inhibition of HPV-16 E1-E2 interaction (E1-E2 complex formation)” value [3] did it give?
The value was “not inhibited”.

Which results are given for HIDYWKHMRLECAIYYKAREMGF [E2N-WP23]?
inhibition of HPV16 E1-E2 interaction ([4]; increasing peptide concentrations, FIG. 6A): inhibitory effects; mode of inhibition of E1-E2 interaction ([4]; inhibition plotted as a function of substrate concentration (data not shown)): competitive inhibition; inhibition of in vitro HPV16 DNA replication [2]: could effectively inhibit in vitro replication
